In patent publication US20260272891A1, “TREATMENT OF AUTOIMMUNE DISEASES AND CANCER WITH PROTEASE INHIBITORS” (Lundquist Institute for Biomedical Innovation at …, priority 2023, published 2026):

Assays:
4T1 cells = assay: Killing of 4T1 cells; type: cell-based, mouse
CD3+ T cells = assay: Flow cytometry, Propidium iodide/CD3 staining to verify drug toxicity; conditions: for toxicity in gated CD3+ T cells compared to DMSO treatment only: three concentrations, donors D186, D317, D93
[1] = system: CD14+ cells for monocytes; assay: Flow cytometry, Propidium iodide/CD14 staining to verify drug toxicity
PBMCs = assay: Flow cytometry, FSC versus SSC gating, percentage of PBMCs; conditions: for percentage of PBMCs (FSC versus SSC gating): 24 hrs
[2] = system: T cells activated using beads; assay: ELISA cytokines, T cell activation with beads; type: cell-based, human; conditions: 5000 ng/ml; for IFN-γ production / IL10 production / IL-4 levels / TNF-α production: activated cells (Bead); for IL-2 production: activated cells, compared to negative control
Method: Conditioned media were tested undiluted, or diluted 1:3 and 1:9 to determine tumor necrosis factor (TNF) α concentration.

[3] = system: Monocytes stimulated by LPS; assay: ELISA cytokines, monocytes stimulated by LPS; type: cell-based, human; conditions: for IL-16 levels / IL-6 / IL-10 / IL-23 / TNF-α: 5000 ng/mL, LPS; for IL-6 / IL-10 / IL-23 / TNF-α: donors D186, D317, D93
From the text: For all experiments, peripheral blood mononuclear cells (PBMC) were isolated either from healthy blood donors as above or purchased from HemaCare as Leukopaks (D186, D317 and D93). PBMC were purified by Ficoll-Hypaque gradient centrifugation (Pharmacia, Piscataway, NJ) and stimulated after freshly isolated as described, or cryopreserved in cryoprotective medium consisting of 90% fetal bovine serum (FBS) in combination with 10% dimethyl sulfoxide (DMSO) at 20 to 30 million cells per vial, and thawed for later stimulation as described. For studies with enriched monocytes, PBMC were cultured in 1% FBS in RPMI 1640, and adhered to sterile plastic tissue culture plates for 1-2 hours; followed by washing off nonadherent PBMC. Remaining adherent monocytes were stimulated as described.
Isolated PBMCs were washed once in 1% FCS RPMI and re-suspended in RPMI-1640 (ThermoFisher Scientific) in 1-2% FCS RPMI. For monocyte isolation, 2×10^6 PBMCs per well were plated in 24-well tissue culture treated plate (ThermoFisher Scientific) at 1 ml each well. Monocytes were allowed to adhere in a 5% CO2 container at 37° C. for 2 hr. Nonadherent cells were removed by thorough washing 2 times with 1% FCS RPMI-1640.

PBMC stimulated by LPS = assay: ELISA cytokines, frozen PBMCs stimulated by LPS; type: cell-based, human; conditions: for production of LPS-stimulated IL-6 / production of LPS-stimulated IL-10 / production of LPS-stimulated IL-23 / production of LPS-stimulated TNF-α: dose response, three concentrations, donors D186, D317, D93, versus LPS alone
Method: PBMC were purified by Ficoll-Hypaque gradient centrifugation (Pharmacia, Piscataway, NJ) and stimulated after freshly isolated as described, or cryopreserved in cryoprotective medium consisting of 90% fetal bovine serum (FBS) in combination with 10% dimethyl sulfoxide (DMSO) at 20 to 30 million cells per vial, and thawed for later stimulation as described.
Cytokine dose-response analysis was performed using linear regression model testing dose (ordinal variable) and adjusting for the individual donors.

SARS-COV-2 Mpro = SARS-COV-2 Mpro (Severe acute respiratory syndrome coronavirus 2, UniProt P0DTD1); conditions: cited from earlier work
T cells = conditions: cells from mice; cited from earlier work

With `CC(C)(C)[C@H](NC(=O)C(F)(F)F)C(=O)N1C[C@H]2[C@@H]([C@H]1C(=O)N[C@H](C#N)C[C@@H]1CCNC1=O)C2(C)C` [NMV, nirmatrelvir] the “killing of 4T1 cells” value (4T1 cells) was “killed 4T1 cells in a dose responsive manner”, the “cells double positive for Propidium iodide (PI) and CD3 (dead cells)” value (CD3+ T cells; Donor 93, 1250 ng) was 19.2% and the “cells double positive for Propidium iodide (PI) and CD3 (dead cells)” value (CD3+ T cells; Donor 93, 2500 ng) was 17.1%. For the same molecule, the “cells double positive for Propidium iodide (PI) and CD3 (dead cells)” value (CD3+ T cells; Donor 93, 5000 ng) was 16.0%, the “cells double positive for Propidium iodide (PI) and CD3 (dead cells)” value (CD3+ T cells; Donor 186, 1250 ng) was 29.9% and the “cells double positive for Propidium iodide (PI) and CD3 (dead cells)” value (CD3+ T cells; Donor 186, 2500 ng) was 31.1%. The “cells double positive for Propidium iodide (PI) and CD3 (dead cells)” value (CD3+ T cells; Donor 186, 5000 ng) was 28.5%, the “cells double positive for Propidium iodide (PI) and CD3 (dead cells)” value (CD3+ T cells; Donor 317, 1250 ng) was 17.9% and the “cells double positive for Propidium iodide (PI) and CD3 (dead cells)” value (CD3+ T cells; Donor 317, 2500 ng) was 16.9%. For the same molecule, the “cells double positive for Propidium iodide (PI) and CD3 (dead cells)” value (CD3+ T cells; Donor 317, 5000 ng) was 17.1%, the “toxicity in gated CD3+ T cells compared to DMSO treatment only” value (CD3+ T cells) was “similar” and the “cells double positive for Propidium iodide (PI) and CD14 (dead cells)” value ([1]; Donor 93, 1250 ng) was 0.90%. For the same molecule, the “cells double positive for Propidium iodide (PI) and CD14 (dead cells)” value ([1]; Donor 93, 2500 ng) was 0.74%, the “cells double positive for Propidium iodide (PI) and CD14 (dead cells)” value ([1]; Donor 93, 5000 ng) was 0.64% and the “cells double positive for Propidium iodide (PI) and CD14 (dead cells)” value ([1]; Donor 186, 1250 ng) was 0.75%. The “cells double positive for Propidium iodide (PI) and CD14 (dead cells)” value ([1]; Donor 186, 2500 ng) was 1.28%, the “cells double positive for Propidium iodide (PI) and CD14 (dead cells)” value ([1]; Donor 186, 5000 ng) was 0.74% and the “cells double positive for Propidium iodide (PI) and CD14 (dead cells)” value ([1]; Donor 317, 1250 ng) was 0.37%. The “cells double positive for Propidium iodide (PI) and CD14 (dead cells)” value ([1]; Donor 317, 2500 ng) was 0.31%, the “cells double positive for Propidium iodide (PI) and CD14 (dead cells)” value ([1]; Donor 317, 5000 ng) was 0.32% and the “percentage of PBMCs (FSC versus SSC gating)” value (“percentage of PBMCs” below) (PBMCs; Donor 93, 1250 ng) was 74.8%. The “percentage of PBMCs” value (PBMCs; Donor 93, 2500 ng) was 76.2%, the “percentage of PBMCs” value (PBMCs; Donor 93, 5000 ng) was 54.6% and the “percentage of PBMCs” value (PBMCs; Donor 186, 1250 ng) was 52.8%. The “percentage of PBMCs” value (PBMCs; Donor 186, 2500 ng) was 44.8%, the “percentage of PBMCs” value (PBMCs; Donor 186, 5000 ng) was 47.7% and the “percentage of PBMCs” value (PBMCs; Donor 317, 1250 ng) was 55.4%. The “percentage of PBMCs” value (PBMCs; Donor 317, 2500 ng) was 64.4%, the “percentage of PBMCs” value (PBMCs; Donor 317, 5000 ng) was 55.9% and the “Peripheral Blood Mononuclear Cells' viability” value (PBMCs; all different concentrations, three donors) was “Do Not Affect”. For the same molecule, the IFN-γ production [2] was “lower”, the IL10 production [2] was “lower” and the IL-4 levels [2] was “lower when compared to all groups with activated cells”. The TNF-α production [2] was “low”, the TNF-α production ([2]; listed as NMR) was “lower” and the IL-2 production [2] was “elevated”. The IL-16 levels ([3]; donors 317 and 93) was “increasing levels”, the IL-6 [3] was “decrease” and the IL-10 [3] was “decrease”. For the same molecule, the IL-23 [3] was “decrease”, the TNF-α [3] was “decrease” and the IL-23 levels (PBMC stimulated by LPS; 5000 ng/ml, LPS, three donors) was “Two of three donors already had no detectable IL-23 levels”. The “production of LPS-stimulated IL-6” value (PBMC stimulated by LPS) was “diminished”, the “production of LPS-stimulated IL-10” value (PBMC stimulated by LPS) was “diminished” and the “production of LPS-stimulated IL-23” value (PBMC stimulated by LPS) was “diminished”. The “production of LPS-stimulated TNF-α” value (PBMC stimulated by LPS) was “diminished” and the “cytokines except IL-1β (IL-6, IL-10, IL-23, TNF-α)” value (PBMC stimulated by LPS; frozen PBMCs stimulated with LPS) was “decrease”.
In the case of `CC(C)c1nc(CN(C)C(=O)N[C@H](C(=O)N[C@@H](Cc2ccccc2)C[C@H](O)[C@H](Cc2ccccc2)NC(=O)OCc2cncs2)C(C)C)cs1` [RTV, ritonavir], the “killing of 4T1 cells” value (4T1 cells) is listed as “killed 4T1 cells in a dose responsive manner”, the “activity against SARS-COV-2 Mpro” value (SARS-COV-2 Mpro) is listed as “lacks activity” and the “IL2, IFN-gamma and TNF-alpha secretion” value (T cells) is listed as “decreasing”. The “cells double positive for Propidium iodide (PI) and CD3 (dead cells)” value (CD3+ T cells; Donor 93, 1250 ng) was 19.5%, the “cells double positive for Propidium iodide (PI) and CD3 (dead cells)” value (CD3+ T cells; Donor 93, 2500 ng) was 19.8% and the “cells double positive for Propidium iodide (PI) and CD3 (dead cells)” value (CD3+ T cells; Donor 93, 5000 ng) was 19.5%. For the same molecule, the “cells double positive for Propidium iodide (PI) and CD3 (dead cells)” value (CD3+ T cells; Donor 186, 1250 ng) was 27.9%, the “cells double positive for Propidium iodide (PI) and CD3 (dead cells)” value (CD3+ T cells; Donor 186, 2500 ng) was 28.9% and the “cells double positive for Propidium iodide (PI) and CD3 (dead cells)” value (CD3+ T cells; Donor 186, 5000 ng) was 28.6%. The “cells double positive for Propidium iodide (PI) and CD3 (dead cells)” value (CD3+ T cells; Donor 317, 1250 ng) was 18.1%, the “cells double positive for Propidium iodide (PI) and CD3 (dead cells)” value (CD3+ T cells; Donor 317, 2500 ng) was 17.5% and the “cells double positive for Propidium iodide (PI) and CD3 (dead cells)” value (CD3+ T cells; Donor 317, 5000 ng) was 17.8%. For the same molecule, the “toxicity in gated CD3+ T cells compared to DMSO treatment only” value (CD3+ T cells) was “similar”, the “cells double positive for Propidium iodide (PI) and CD14 (dead cells)” value ([1]; Donor 93, 1250 ng) was 0.90% and the “cells double positive for Propidium iodide (PI) and CD14 (dead cells)” value ([1]; Donor 93, 2500 ng) was 1.12%. For the same molecule, the “cells double positive for Propidium iodide (PI) and CD14 (dead cells)” value ([1]; Donor 93, 5000 ng) was 0.81%, the “cells double positive for Propidium iodide (PI) and CD14 (dead cells)” value ([1]; Donor 186, 1250 ng) was 2.14% and the “cells double positive for Propidium iodide (PI) and CD14 (dead cells)” value ([1]; Donor 186, 2500 ng) was 1.71%. The “cells double positive for Propidium iodide (PI) and CD14 (dead cells)” value ([1]; Donor 186, 5000 ng) was 1.71%, the “cells double positive for Propidium iodide (PI) and CD14 (dead cells)” value ([1]; Donor 317, 1250 ng) was 0.42% and the “cells double positive for Propidium iodide (PI) and CD14 (dead cells)” value ([1]; Donor 317, 2500 ng) was 0.38%. For the same molecule, the “cells double positive for Propidium iodide (PI) and CD14 (dead cells)” value ([1]; Donor 317, 5000 ng) was 0.44%, the “percentage of PBMCs” value (PBMCs; Donor 93, 1250 ng) was 60.4% and the “percentage of PBMCs” value (PBMCs; Donor 93, 2500 ng) was 62.9%. The “percentage of PBMCs” value (PBMCs; Donor 93, 5000 ng) was 55.9%, the “percentage of PBMCs” value (PBMCs; Donor 186, 1250 ng) was 48.0% and the “percentage of PBMCs” value (PBMCs; Donor 186, 2500 ng) was 51.3%. For the same molecule, the “percentage of PBMCs” value (PBMCs; Donor 186, 5000 ng) was 44.9%, the “percentage of PBMCs” value (PBMCs; Donor 317, 1250 ng) was 61.3% and the “percentage of PBMCs” value (PBMCs; Donor 317, 2500 ng) was 56.2%. For the same molecule, the “percentage of PBMCs” value (PBMCs; Donor 317, 5000 ng) was 57.4%, the IFN-γ production [2] was “higher levels” and the IL10 production [2] was “higher”. The IL-4 levels [2] was “higher”, the TNF-α production [2] was “high levels” and the IL-2 production [2] was “elevated”. For the same molecule, the IL-16 levels ([3]; donor186) was “Slightly decreased”, the IL-16 levels ([3]; donors 317 and 93) was “increasing levels” and the IL-6 [3] was “decrease”. For the same molecule, the IL-10 [3] was “decrease”, the IL-23 [3] was “decrease” and the TNF-α [3] was “decrease”. For the same molecule, the IL-1β ([3]; monocytes, 5000 ng/ml) was “decreased”, the “production of LPS-stimulated IL-6” value (PBMC stimulated by LPS) was “no effect” and the “production of LPS-stimulated IL-10” value (PBMC stimulated by LPS) was “no effect”. The “production of LPS-stimulated IL-23” value (PBMC stimulated by LPS) was “no effect” and the “production of LPS-stimulated TNF-α” value (PBMC stimulated by LPS) was “no effect”.
